Experimental data from ChEMBL document CHEMBL1133932, “Synthesis and biological evaluation of L- and D-configurations of 2',3'-dideoxy-4'-C-methyl-3'-oxacytidine analogues” (Bioorg Med Chem Lett, 2001).

Assays:
Assay type in all cases: functional, cell-based
[1] = system: L1210; assay: In vitro inhibition of L1210 leukemia cell replication by the compound; settings: Mus musculus
[2] = system: CCRF-CEM; assay: In vitro inhibition of CCRF-CEM lymphoblastic leukemia cell replication by the compound; settings: Homo sapiens
[3] = system: P388; assay: In vitro inhibition of P388 leukemia cell replication by the compound; settings: Mus musculus
[4] = system: B16-F10; assay: In vitro inhibition of B16F10 melanoma cell replication by the compound; settings: Mus musculus
[5] = system: L1210; assay: In vitro inhibition of L1210 leukemia cell replication by the compound at; settings: Mus musculus

Compound	IC50 [1]	IC50 [2]	IC50 [3]	IC50 [4]	IC50 [5]
CC1(CO)OCC(n2ccc(N)nc2=O)O1 (configuration not stated)	50 µM	30 µM	10 µM	100 µM	–
C[C@]1(CO)OCC(n2cc(F)c(N)nc2=O)O1 (some centres not stated)	> 100 µM	> 100 µM	> 100 µM	> 100 µM	–
CC1(CO)OC[C@@H](n2ccc(N)nc2=O)O1 (some centres not stated)	> 100 µM	> 100 µM	> 100 µM	> 100 µM	–
CC1(CO)OCC(n2cc(F)c(N)nc2=O)O1 (configuration not stated)	–	> 100 µM	> 100 µM	> 100 µM	> 100 µM
CC1(CO)OC[C@@H](n2cc(F)c(N)nc2=O)O1 (some centres not stated)	> 100 µM	> 100 µM	> 100 µM	> 100 µM	–

Second part, the molecule after the results:

IC50 [1]	IC50 [2]	IC50 [3]	IC50 [4]	IC50 [5]	Compound
> 100 µM	> 100 µM	> 100 µM	100 µM	–	C[C@]1(CO)OCC(n2ccc(N)nc2=O)O1 (some centres not stated)
45 µM	30 µM	5 µM	100 µM	–	C[C@]1(CO)OCC(n2ccc(N)nc2=O)O1 (single isomer, unassigned)
> 100 µM	> 100 µM	50 µM	> 100 µM	–	C[C@]1(CO)OCC(n2cc(F)c(N)nc2=O)O1 (single isomer, unassigned)
